“Also recorded” adds a separate entry of the source.
Columns and labels:
[1] = system: Luciferase-expressing human pancreatic cancer cells PANC-1; assay: Therapeutic effect on peritoneal dissemination of pancreatic cancer (IVIS luciferase activity, survival); assay type: in vivo, BALB/c nu/nu mice; conditions: PANC-1-luc model, lipoplex i.p. 20 μg TS-shRNA/mouse, Paclitaxel i.p. 10 mg/kg, days 8, 11, 14, 17, IVIS days 7-25
Protocol: The therapeutic effects of the TS-shRNA-carrying lipoplex (i.e., novel preparation (2)) prepared in the same manner as in Example 1 on peritoneal dissemination of pancreatic cancer were evaluated.
Luciferase-expressing human pancreatic cancer cells PANC-1 (PANC-1-luc, Pharmaron) were cultured and transplanted intraperitoneally into BALB/c nu/nu mice (6- to 8-week-old, female, Beijing HFK Bio-Technology Co., Ltd.) at 1.0×10^7 cells/mouse to prepare mouse models for peritoneal dissemination of PANC-1-luc.
In Example 7, the lipoplex (novel preparation (2)), Paclitaxel (Taxol, Pharmaron), or the lipoplex (novel preparation (2)) in combination with Paclitaxel was administered to different mouse models. A 9% sucrose solution was administered to the control group.
The lipoplex (novel preparation (2)) was administered intraperitoneally to mouse models in such a manner that 20 μg of TS-shRNA would be administered to each mouse per day, and such administration was carried out four times in total (i.e., 8, 11, 14, and 17 days after the cell transplantation). Paclitaxel was administered intraperitoneally to the relevant group of mouse models four times in total (i.e., 8, 11, 14, and 17 days after the cell transplantation) at 10 mg/kg. […]

[2] = TS-shRNA concentration in ascites and blood by RT-PCR after intraperitoneal lipoplex administration; assay type: in vivo, BALB/c nu/nu mice; conditions: after i.p. administration of lipoplex (novel preparation (2)), ovarian cancer peritoneal metastasis mouse model

Molecule | increase in luciferase activity (tumor growth in the abdominal cavity) compared with the control group [1] | half-life of TS-shRNA in the ascites [2] | leakage of TS-shRNA into the blood [2]
CC(=O)O[C@H]1C(=O)[C@@]2(C)[C@H]([C@H](OC(=O)c3ccccc3)[C@]3(O)C[C@H](OC(=O)[C@H](O)[C@@H](NC(=O)c4ccccc4)c4ccccc4)C(C)=C1C3(C)C)[C@]1(OC(C)=O)CO[C@@H]1C[C@@H]2O [Paclitaxel] | suppressed; also recorded: strong tumor suppression effects | – | –
TS-shRNA: TS-targeting shRNA, SEQ ID NO: 8, 5′-GUAACACCAUCGAUCAUGAUAGUGCUCCUGGUUGUCAUGAUCGAUGGUGUUACUU-3′ (shRNA hairpin in lipoplex, chemistry not given here) | – | approximately 8 hours | had not leaked

From patent US9855345B2, “Method for producing lipoplex for topical administration and antitumor agent using such lipoplex” (DELTA-FLY PHARMA, INC., priority 2014, dated 2018)
